Measured values published in patent publication US10183026B2, “Method of adjuvant treatment with chlorophyllin containing therapeutic preparation including for radioprotection of normal tissues during radiation therapy and kit therefor” (priority 2016, dated 2019).

Assays:
[1] = system: MCF-7 human breast cancer cells; assay: Mitotic catastrophe, Hoechst stained nuclei; type: cell-based
Method: MCF-7 cells (3×10^5 cells) were grown on the coverslip, treated with indicated concentrations of chlorophyllin (0, 10, 20, 50 or 100 μM) and exposed for 48 hrs to indicated doses of radiation (4 Gy and 8 Gy). After irradiation cells were fixed and stained with Hoechst and observed under fluorescence microscope. Cells with mitotic abnormalities have been counted for each group.

Gr-1+ granulocytes = assay: Frequency of Gr-1+ granulocytes in bone marrow and blood; type: in vivo, mice
Method: Percent granulocytes are a biological marker for efficacy of chlorophyllin as a radioprotector in vivo. […] This is the preferred dose range. Although percentage of granulocytes increases at doses 720 and 900 mg/kg body weight, these doses are not preferred to be translated to humans. (FIG. 1E)

[2] = system: MCF7 human breast cancer cells; assay: Clonogenic survival assay, MCF7; type: cell-based
Method: (§1) A549 and MCF 7 cells (2000 cells for control, 4 Gy and 5000 cells for 8 Gy treatments) were plated overnight in 6 well plates followed by treatment with indicated concentrations of chlorophyllin (0, 10, 20, 50 or 100 μM) for 2 h and exposed to indicated doses of radiation. After radiation exposure plates were incubated at 37° C. in CO2 incubator for 12 days for the development of colonies. After the colony formation, the plates were washed with PBS, fixed with methanol and stained with crystal violet. The colonies with more than 50 cells were counted and the survival fraction was calculated using the following formula: Survival fraction=No. of colonies/[no. of cells plated X (plating efficiency/100)], where plating efficiency is the ratio between the number of colonies developed to the number of cells plated in control.

[3] = system: lineage negative cells in the bone marrow; assay: Cell cycle of lineage negative cells in the bone marrow; type: in vivo, mice; settings: specified dose
bone marrow cellularity = assay: Bone marrow cellularity after 6 Gy whole body radiation; type: in vivo, BALB/c mice; settings: 500 mg/Kg bw orally for 3 consecutive days
Method: (§2) Experimental animals 8- to 9 weeks-old inbred BALB/c male mice, weighing approximately 20-25 g, were treated with CHL formulation at the dose of 500 mg/Kg bw given orally for 3 consecutive days followed by whole body irradiation [using a 60Co γ-irradiator at a dose rate of 1 Gy/min (BhabhatronI II, Panacea, India)] of 7.5 Gy in one group and 6 Gy radiation to another group. Treated groups were compared to untreated control and mice treated only with CHL formulation at the given dose and mice with whole body irradiation without the CHL formulation.

[4] = system: mice exposed to whole body irradiation; assay: Protection against whole body irradiation induced mortality (30 days survival); type: in vivo, BALB/c mice; settings: 100 mg/kg bw, Intra peritoneal, 7.0 Gy
[5] = system: hematopoietic stem cells in the bone marrow; assay: Hoechst side population assay of bone marrow; type: in vivo, BALB/c mice; settings: 500 mg/Kg bw orally for 3 consecutive days
Method: 8- to 9 weeks-old inbred BALB/c male mice, weighing approximately 20-25 g, were grouped into untreated control and CHL treated groups.
(§3) CHL formulation dose and duration: 500 mg/Kg bw given orally for 3 consecutive days.
Side population analysis: The femur bones the above mentioned mice were dissected and the marrow was flushed out into cold Iscove's Modified Dulbecco's Medium (IMDM), 2% FBS using a 21-gauge needle. Nucleated cells were counted using Hemocytometer and trypan blue dye exclusion. Three million cells from each mouse were resuspended in pre-warmed (37° C.) DMEM without phenol red. Hoechst 33342 ([…]) was added and cells were incubated at 37° C. for 90 min with intermittent shaking. At the end of incubation, cells were washed with DMEM without phenol red and kept on ice and acquired on a flow cytometer within 2 h. Verapamil (100 μM concentration) treated bone marrow cells were used to identify the Hoechst side population in this assay.
Verapamil dose: 100 μM final concentration

bone marrow cells = assay: Colony forming units in bone marrow cells of whole body irradiated mice; type: cell-based; settings: bone marrow cells in vitro
[6] = system: MCF7 human breast cancer cells; assay: Cancer stem cell frequency (Aldefluor, CD24-CD44+, Hoechst side population), MCF7; type: cell-based; settings: 4 Gy or 8 Gy
Method: (§4) For cancer stem cell analysis, by Aldefluor assay, MCF7 cells and MDA MB231 cells were stained with either Aldefluor reagent or PE-[…], APC-Cy7CD44, antibodies for 20 min on ice. The cells were washed and fixed with 1% paraformaldehyde for 20 min and stained with Hoechst 33342 (10 mg/ml) for 4 h. Isotype controls stained cells, single antibody stained cells, and fluorescence minus one (FMO) controls were used for compensation and gating. The cells were acquired on a flow Cytometer (Partec Cyflow) and analysed using FlowJo 7.6.5 (Treestar, Inc., Ashland) software.

[7] = system: A549 human lung cancer cells; assay: γH2AX foci formation assay, A549; type: cell-based; settings: 50 μM
Method: (§5) A549 cells and MCF (3×10^5 cells) were grown on the coverslip, treated with 50 μM of chlorophyllin, followed by 4 Gy radiation exposure. At different time intervals after irradiation (either 15 min or 120 min), cells were fixed with 4% paraformaldehyde, permeabilized using Triton X-100, blocked with 5% bovine serum albumin and then treated with anti-γ-H2AX antibody. Then cells were stained with FITC labeled secondary antibody and visualized using fluorescence microscope. The average number of foci per cell was calculated after counting the foci from 100 cells per group.

rats = assay: Acute oral toxicity in rats; type: in vivo; settings: up to an acute oral dose of 5 gm per Kg body weight
mice = assay: Acute oral toxicity in mice; type: in vivo; settings: up to an acute oral dose of 5 gm per Kg body weight
[8] = system: MDA-MB 231 triple negative breast cancer cells; assay: Cancer stem cell frequency (CD24-CD44+, Hoechst side population), MDA-MB231; type: cell-based, human; settings: 50 μM, 4 Gy or 8 Gy
Method: as §4

normal lung epithelia = assay: Gamma radiation (4 Gy)-induced injury to lung epithelial cells (cellular atypia); type: in vivo
[9] = system: MCF-7 human breast cancer xenograft tumors; assay: In vivo radiosensitization of human breast cancer xenograft in SCID mice
Method: MCF-7 cells (10×10^6 in 50 μl 1×PBS and 50 μl matrigel) were injected subcutaneously in foot pad of each mouse and tumors were monitored till they developed to measurable size. Mice were then treated with 500 mg/Kg bw chlorophyllin in PBS orally for three consecutive days. After last dose administration mice were locally exposed to IR 6 Gy (at the site of tumor) and subsequently monitored for 30 days for tumor growth and survival. Measurements of tumor were taken on alternate days using digital Vernier caliper and tumor volume was recorded. At the end of 30 days tumour mass was excised for further analysis.

[10] = Pharmacokinetic study, serum half-life; type: in vivo; settings: mice
G-CSF = assay: Serum levels of G-CSF as a function of time; type: in vivo, mice; settings: 500 mg/Kg bw orally for 3 days; 2, 24, 48 and 72 hrs
Method: as §3

MCF-7 cells = assay: Reactive oxygen species by DCFDA, DHE, DHR123 fluorescence; type: cell-based, human; settings: 50 μM
Method: MCF-7 cells (1×10^5) were stained with H2DCF-DA (10 μM) Ex./Em. 485/535 nm or dihydroethidium (DHE 5 μM) 518/605 nm or DHR 123 (5 μM) 500/536 nm for 20 min and incubated with chlorophyllin (50 μM) or vehicle for indicated time intervals at 37° C. Cells were exposed to 4 Gy IR and fluorescence was monitored at respective wavelengths using BioTek Microplate Reader (Synergy).

[11] = system: MCF7 human breast cancer cells; assay: γH2AX foci formation assay, MCF7; type: cell-based; settings: 50 μM
Method: as §5

[12] = system: A549 human lung cancer cells; assay: Clonogenic survival assay, A549; type: cell-based
Method: as §1

[13] = system: mice exposed to whole body irradiation; assay: Protection against whole body irradiation induced mortality (30 days survival); type: in vivo, BALB/c mice; settings: for Extent of protection offered to mice against radiation induced mortality: Oral; for protection against radiation induced mortality as monitored by 30 days survival: 100-1000 mg/kg b.w. (preferred 180-500) orally, table of expected outcome
Method: as §2
To assess the in vivo radio protective efficacy of chlorophyllin, mice were given three consecutive oral administrations of: CHL formulation 1 containing chlorophyllin (500-mg/kg bw) and penicillin (10-50 mg/kg+ streptomycin 20-80 mg/kgbw) or CHL formulation 2 containing chlorophyllin (500 mg/kg bw) and tetracycline (20-80 mg/kgbw) at 24 h interval and were exposed to 8 Gy dose of whole body irradiation (which is used as a supplement to surgery during radiotherapy of cancer patients) 2 h after the last injection. Formulation 3 is chlorophyllin alone given at a dose of 500 mg/kg bw for three consecutive days with a gap of 24 h between each dose.
Trials were conducted where chlorophyllin formulation ranging from 90 mg/kg bw to 2000 mg/kg body weight were administered to mice by oral gavage for three to four consecutive days at 24 h interval between doses. Alternatively, chlorophyllin was administered by intraperitoneal route (100 mg/kg body weight) for three consecutive days at 24 h interval. The mice were exposed to different doses of whole body irradiation (7.0 Gy, 7.5 Gy or 8 Gy) 2 h after last dose of chlorophyllin. The mice were monitored for changes in body weight and survival up to 30 days after WBI.

[14] = chlorophyllin alone, 10-100 μM, 2 h

chlorophyllin
radiation toxicity in human breast cancer cells in vitro ([1]; 4 Gy or 8 Gy, 10-100 μM): enhanced the radiation toxicity
mitotic abnormalities (micronuclei, multinucleated giant cells) ([1]; chlorophyllin prior to 4 Gy or 8 Gy, 48 h): pattern of mitotic catastrophe
neutrophil frequency in the peripheral blood (Gr-1+ granulocytes; 500 mg/Kg bw orally for 3 days): increased neutrophil frequency
production of granulocytes (Gr-1+) in bone marrow (Gr-1+ granulocytes; 500 mg/Kg bw orally for 3 days): increase in the production of granulocytes
percent granulocytes, dose response (Gr-1+ granulocytes; doses up to 900 mg/kg body weight): increases up to 180 mg/kg and then plateaus up to 540 mg/kg body weight dose
sensitization to radiation induced loss of clonogenic capacity ([2]; MCF-7, 4 Gy, CHL 10, 20, 50 or 100 μM): significantly sensitized
colony forming ability of MCF-7 cells as compared to control [2, 14]: significantly decreased
cell cycle effect in lineage negative cells in the bone marrow [3]: transient cell cycle arrest
recovery from radiation induced bone marrow aplasia (bone marrow cellularity): enhanced the recovery
Extent of protection offered to mice against radiation induced mortality ([4]; 1 day): 30%
Extent of protection offered to mice against radiation induced mortality ([4]; 4 days): 70%
increase of hematopoietic stem cells versus control [5]: 2-3 fold
abundance of hematopoietic stem cells (Hoechst side population) ([5]; control 0.121%): 0.573%
number of colony forming units (CFUs) in bone marrow cells (bone marrow cells): significantly increased
percentage of CD24-CD44+ cancer stem cells, combination with radiation ([6]; 50 μM): more effective than radiation or chlorophyllin alone
radiation induced increase in ALDH-positive cells ([6]; 100 μM): significantly attenuated
number of γ-H2AX foci versus radiation alone ([7]; 15 min after 4 Gy): did not have any effect
number of γ-H2AX foci versus radiation alone ([7]; 120 minutes after 4 Gy): significantly higher
toxicity (rats): did not show any toxicity
toxicity (mice): did not show any toxicity
percentage of CD24-CD44+ cancer stem cells, combination with radiation [8]: more effective than radiation or chlorophyllin alone
gamma radiation-induced injury to normal lung epithelia (cellular atypia) (normal lung epithelia): reduced
prevention of growth of human breast cancer cells in SCID mice ([9]; 500 mg/Kg bw orally for three days + 6 Gy focal irradiation): most effective
reduction in tumor after exposure to IR as compared to control mice bearing human xenograft ([9]; 6 Gy, 100-1000 mg/kg b.w. (preferred 180-500) orally, three consecutive days, without antibiotics, table of expected outcome): (50%
tumour volume ([9]; chlorophyllin alone, 500 mg/Kg bw orally for three consecutive days): significant decrease
serum half-life [10]: 2.363 h
serum levels of G-CSF (G-CSF): maximum rise after 24 hrs
radiation induced increase in intracellular ROS levels (MCF-7 cells; 4 Gy IR): attenuated
background levels of free radicals (MCF-7 cells; no radiation): able to scavenge
number of γ-H2AX foci versus radiation alone ([11]; 15 min after 4 Gy): did not have any effect
number of γ-H2AX foci versus radiation alone ([11]; 120 minutes after 4 Gy): significantly higher
sensitization to radiation induced loss of clonogenic capacity ([12]; A549, 4 Gy, CHL 10, 20, 50 or 100 μM): able to sensitize
colony forming ability of A549 cells as compared to control [12, 14]: significantly decreased
Extent of protection offered to mice against radiation induced mortality ([13]; 90 mg/kg bw, 3 days, 7.5 Gy): 66.6%
Extent of protection offered to mice against radiation induced mortality ([13]; 180 mg/kg bw, 3 days, 7.5 Gy): up to 100%
Extent of protection offered to mice against radiation induced mortality ([13]; 180 mg/kg bw, 3 days, 7.5 Gy, listed as Chlorophyllin): 100%
Extent of protection offered to mice against radiation induced mortality ([13]; 500 mg/kg bw, 3 days, 7.5 Gy): 70%
Extent of protection offered to mice against radiation induced mortality ([13]; 2000 mg/kg bw, 4 days, 7.0 Gy): 50%
protection against whole body irradiation induced mortality ([13]; 7.5 Gy, 500 mg/Kg bw orally for 3 consecutive days): significantly protected
protection against radiation induced mortality as monitored by 30 days survival ([13]; 7.5 Gy, three consecutive days, without antibiotics): 100%
rescue from WBI-induced mortality, 30 days survival ([13]; 8 Gy WBI, 500 mg/kg bw, three consecutive days, 80% of irradiated mice died within 17 days): rescued all the mice
protection against radiation induced mortality as monitored by 30 days survival ([13]; 8 Gy, three consecutive days, with antibiotics): 100%
Extent of protection offered to mice against radiation induced mortality ([13]; chlorophyllin 500 mg/kg bw, 3 days, 8.0 Gy): 60%
